Assay results published in patent publication US9969752B2, “Inhibitors of HIF prolyl hydroxylase” (MERCK SHARP & DOHME CORP., priority 2014, dated 2018).

target: T1, Human HIF-PHD2 (Homo sapiens, UniProt Q9GZT9); experiment: Inhibition of the hydroxylation of a HIF peptide by PHD2 (time resolved fluorescence, 384-well); format: biochemical; settings: FLAG-tagged full length PHD2; 0.2 μM 2-oxoglutarate, 0.5 μM HIF-1α peptide; 45 minutes at room temperature; read-out: Human HIF-PHD2 IC50
T1 construct: FLAG-tagged full length PHD2 expressed in and purified from baculovirus-infected Sf9 cells; FLAG; made in house; host or cells: baculovirus-infected Sf9 cells
T1 sequence (Q9GZT9 whole entry): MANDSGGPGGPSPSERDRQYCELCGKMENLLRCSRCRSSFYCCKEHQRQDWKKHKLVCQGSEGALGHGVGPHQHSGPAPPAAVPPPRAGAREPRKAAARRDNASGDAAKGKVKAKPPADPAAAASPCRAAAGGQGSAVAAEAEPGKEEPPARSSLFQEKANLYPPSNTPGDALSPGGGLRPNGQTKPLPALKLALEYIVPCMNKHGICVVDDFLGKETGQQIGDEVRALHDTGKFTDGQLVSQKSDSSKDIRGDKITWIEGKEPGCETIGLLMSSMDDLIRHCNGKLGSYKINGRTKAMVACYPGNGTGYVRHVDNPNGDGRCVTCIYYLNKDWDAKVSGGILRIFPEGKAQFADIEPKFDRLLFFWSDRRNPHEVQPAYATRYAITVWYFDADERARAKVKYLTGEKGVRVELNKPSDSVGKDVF

For `N#Cc1ccc(C2Cn3c(=O)c(C(=O)NCC(=O)O)c(O)c4cc(C#N)cc(c43)O2)cc1` (stereo not shown) [Example 52, 2-(9-Cyano-2-(4-cyanophenyl)-7-hydroxy-5-oxo-3,5-dihydro-2H-[1,4]oxazino[2,3,4-ij]quinoline-6-carboxamido)acetic acid], which IC50 is on record?
The IC50 was 0.5 nM.

For `O=C(O)CNC(=O)c1c(O)c2cc(Br)cc3c2n(c1=O)CC(c1ccc(Br)cc1)O3` (stereo not shown) [Example 53, 2-(9-Bromo-2-(4-bromophenyl)-7-hydroxy-5-oxo-3,5-dihydro-2H-[1,4]oxazino[2,3,4-ij]quinoline-6-carboxamido)acetic acid], which IC50 is on record?
The IC50 was 3.5 nM.

How did the IC50 turn out when `N#Cc1ccc(C2Cn3c(=O)c(C(=O)NCC(=O)O)c(O)c4c(C#N)ccc(c43)O2)cc1` (stereo not shown) [Example 54, 2-(8-Cyano-2-(4-cyanophenyl)-7-hydroxy-5-oxo-3,5-dihydro-2H-[1,4]oxazino[2,3,4-ij]quinoline-6-carboxamido)acetic acid] was run?
The IC50 was 1.1 nM.

With `O=C(O)CNC(=O)c1c(O)c2c(Br)ccc3c2n(c1=O)CC(c1ccc(Br)cc1)O3` (stereo not shown) [Example 55, 2-(8-Bromo-2-(4-bromophenyl)-7-hydroxy-5-oxo-3,5-dihydro-2H-[1,4]oxazino[2,3,4-ij]quinoline-6-carboxamido)acetic acid] as the molecule, how does the IC50 read?
Its IC50 is 2.5 nM.

`N#Cc1ccc(C2Cn3c(=O)c(C(=O)NCC(=O)O)c(O)c4ccc(C#N)c(c43)O2)cc1` (stereo not shown) [Example 56, 2-(10-Cyano-2-(4-cyanophenyl)-7-hydroxy-5-oxo-3,5-dihydro-2H-[1,4]oxazino[2,3,4-ij]quinoline-6-carboxamido)acetic acid] was tested. Which IC50 did it give?
Its IC50 is 0.6 nM.

With `O=C(O)CNC(=O)c1c(O)c2ccc(Br)c3c2n(c1=O)CC(c1ccc(Br)cc1)O3` (stereo not shown) [Example 57, 2-(10-Bromo-2-(4-bromophenyl)-7-hydroxy-5-oxo-3,5-dihydro-2H-[1,4]oxazino[2,3,4-ij]quinoline-6-carboxamido)acetic acid] as the molecule, how does the IC50 read?
The IC50 was 2.7 nM.

`O=C(O)CNC(=O)c1c(O)c2cccc3c2n(c1=O)CC(c1ccc(C(F)(F)F)cc1)[S+]3[O-]` (stereo not shown) [Example 59, 2-(7-Hydroxy-1-oxido-5-oxo-2-(4-(trifluoromethyl)phenyl)-3,5-dihydro-2H-[1,4]thiazino[2,3,4-ij]quinoline-6-carboxamido)acetic acid] was tested. Which IC50 did it give?
The IC50 was 1 nM.

With `O=C(O)CNC(=O)c1c(O)c2cccc3c2n(c1=O)CC(c1ccc(C(F)(F)F)cc1)S3(=O)=O` (stereo not shown) [Example 60, 2-(7-Hydroxy-1,1-dioxido-5-oxo-2-(4-(trifluoromethyl)phenyl)-3,5-dihydro-2H-[1,4]thiazino[2,3,4-ij]quinoline-6-carboxamido)acetic acid] as the molecule, how does the IC50 read?
The IC50 was 0.8 nM.

For `Cc1ccc2c3c1c(O)c(C(=O)NCC(=O)O)c(=O)n3CC(c1ccc(C(F)(F)F)cc1)O2` (stereo not shown) [Example 63, 2-(7-Hydroxy-8-methyl-5-oxo-2-(4-(trifluoromethyl)phenyl)-3,5-dihydro-2H-[1,4]oxazino[2,3,4-ij]quinoline-6-carboxamido)acetic acid], which IC50 is on record?
Its IC50 is 13 nM.

`O=C(O)CNC(=O)c1c(O)c2cccc3c2n(c1=O)CC(c1ccc(C(F)(F)F)cc1)N3` (stereo not shown) [Example 64, 2-(7-Hydroxy-5-oxo-2-(4-(trifluoromethyl)phenyl)-1,2,3,5-tetrahydropyrido[1,2,3-de]quinoxaline-6-carboxamido)acetic acid] was tested. Which IC50 did it give?
Its IC50 is 4.5 nM.

`CN1c2cccc3c(O)c(C(=O)NCC(=O)O)c(=O)n(c23)CC1c1ccc(C(F)(F)F)cc1` (stereo not shown) [Example 65, 2-(7-Hydroxy-1-methyl-5-oxo-2-(4-(trifluoromethyl)phenyl)-1,2,3,5-tetrahydropyrido[1,2,3-de]quinoxaline-6-carboxamido)acetic acid] was tested. Which IC50 did it give?
Its IC50 is 34 nM.

`O=C(O)CNC(=O)c1c(O)c2cc(F)cc3c2n(c1=O)CC(c1ccc(C(F)(F)F)cc1)O3` (stereo not shown) [Example 66, 2-(9-Fluoro-7-hydroxy-5-oxo-2-(4-(trifluoromethyl)phenyl)-3,5-dihydro-2H-[1,4]oxazino[2,3,4-ij]quinoline-6-carboxamido)acetic acid] was tested. Which IC50 did it give?
The IC50 was 5 nM.

For `O=C(O)CNC(=O)c1c(O)c2ccc(F)c3c2n(c1=O)CC(c1ccc(C(F)(F)F)cc1)O3` (stereo not shown) [Example 67, 2-(10-Fluoro-7-hydroxy-5-oxo-2-(4-(trifluoromethyl)phenyl)-3,5-dihydro-2H-[1,4]oxazino[2,3,4-ij]quinoline-6-carboxamido)acetic acid], which IC50 is on record?
Its IC50 is 4.3 nM.

Which IC50 does the source give for `CS(=O)(=O)c1ccc(C2Cn3c(=O)c(C(=O)NCC(=O)O)c(O)c4ccc(C(F)(F)F)c(c43)O2)cc1` (stereo not shown) [Example 76, 2-(7-Hydroxy-2-(4-(methylsulfonyl)phenyl)-5-oxo-10-(trifluoromethyl)-3,5-dihydro-2H-[1,4]oxazino[2,3,4-ij]quinoline-6-carboxamido)acetic acid] here?
The IC50 was 1.4 nM.

How did the IC50 turn out when `COc1ccc2c3c1c(O)c(C(=O)NCC(=O)O)c(=O)n3CC(c1ccc(C(F)(F)F)cc1)O2` (stereo not shown) [Example 79, 2-(7-hydroxy-8-methoxy-5-oxo-2-(4-(trifluoromethyl)phenyl)-3,5-dihydro-2H-[1,4]oxazino[2,3,4-ij]quinoline-6-carboxamido)acetic acid] was run?
Its IC50 is 4 nM.

For `O=C(O)CNC(=O)c1c(O)c2c(O)ccc3c2n(c1=O)CC(c1ccc(C(F)(F)F)cc1)O3` (stereo not shown) [Example 80, 2-(7,8-dihydroxy-5-oxo-2-(4-(trifluoromethyl)phenyl)-3,5-dihydro-2H-[1,4]oxazino[2,3,4-ij]quinoline-6-carboxamido)acetic acid], which IC50 is on record?
Its IC50 is 12 nM.

With `COc1cc2c3c(c1)c(O)c(C(=O)NCC(=O)O)c(=O)n3CC(c1ccc(C(F)(F)F)cc1)O2` (stereo not shown) [Example 81, 2-(7-Hydroxy-9-methoxy-5-oxo-2-(4-(trifluoromethyl)phenyl)-3,5-dihydro-2H-[1,4]oxazino[2,3,4-ij]quinoline-6-carboxamido)acetic acid] as the molecule, how does the IC50 read?
The IC50 was 2.9 nM.

Which IC50 does the source give for `O=C(O)CNC(=O)c1c(O)c2cc(O)cc3c2n(c1=O)CC(c1ccc(C(F)(F)F)cc1)O3` (stereo not shown) [Example 82, 2-(7,9-Dihydroxy-5-oxo-2-(4-(trifluoromethyl)phenyl)-3,5-dihydro-2H-[1,4]oxazino[2,3,4-ij]quinoline-6-carboxamido)acetic acid] here?
The IC50 was 2.7 nM.

Which IC50 does the source give for `O=C(O)CNC(=O)c1c(O)c2cccc3c2n(c1=O)CC(c1ccc(C(F)(F)F)nc1)C3` (stereo not shown) [Example 83, 2-(1-Hydroxy-3-oxo-6-(6-(trifluoromethyl)pyridin-3-yl)-3,5,6,7-tetrahydropyrido[3,2,1-ij]quinoline-2-carboxamido)acetic acid] here?
The IC50 was 5 nM.

Which IC50 does the source give for `N#Cc1cc2c3c(c1)c(O)c(C(=O)NCC(=O)O)c(=O)n3CC(c1ccc(C(F)(F)F)nc1)C2` (stereo not shown) [Example 84, 2-(9-cyano-1-hydroxy-3-oxo-6-(6-(trifluoromethyl)pyridin-3-yl)-3,5,6,7-tetrahydropyrido[3,2,1-ij]quinoline-2-carboxamido)acetic acid] here?
Its IC50 is 0.9 nM.

For `CS(=O)(=O)c1cc2c3c(c1)c(O)c(C(=O)NCC(=O)O)c(=O)n3CC(c1ccc(C(F)(F)F)nc1)C2` (stereo not shown) [Example 85, 2-(1-hydroxy-9-(methylsulfonyl)-3-oxo-6-(6-(trifluoromethyl)pyridin-3-yl)-3,5,6,7-tetrahydropyrido[3,2,1-ij]quinoline-2-carboxamido)acetic acid], which IC50 is on record?
Its IC50 is 0.9 nM.

same assay, conditions: FLAG-tagged full length PHD2; 0.2 μM 2-oxoglutarate, 0.5 μM HIF-1α peptide; 45 minutes at room temperature; read-out: MS m/z (M + 1)+ and human HIF-PHD2 IC50

With `O=C(O)CNC(=O)c1c(O)c2cccc3c2n(c1=O)CC(c1ccc(C(F)(F)F)cc1)[S+]3[O-]` (stereo not shown) [Example 61, 2-(7-hydroxy-1-oxido-5-oxo-2-(4-(trifluoromethyl)phenyl)-3,5-dihydro-2H-[1,4]thiazino[2,3,4-ij]quinoline-6-carboxamido)acetic acid] as the molecule, how does the IC50 read?
Its IC50 is 1 nM.
